Measurements: paper PMC12217481, “Structure and mechanism of taniborbactam inhibition of the cefepime-hydrolyzing, partial R2-loop deletion Pseudomonas-derived cephalosporinase variant PDC-88” (Antimicrobial Agents and Chemotherapy, 2025)
Values after ≈ are worked out from the molar mass of the structure shown. Read-outs that look alike come from different tables or passages of the source.

Key:
P. aeruginosa isolates = conditions: 200 well-characterized P. aeruginosa isolates; cited from earlier work
PDC-3 = biological target: T1, PDC-3 (Pseudomonas aeruginosa, UniProt P24735, T105A); assay: Spectrophotometric β-lactam hydrolysis (progress curves, steady-state kinetics) by PDC-3; assay type: biochemical
T1 construct: The PDC-3 expression construct was created in a similar manner but starting with a previously described pBC SK(−) vector; made in house; host or cells: E. coli BL21-CodonPlus (DE3)-RP, pET24a(+)
T1 sequence (P24735 27-397 T105A): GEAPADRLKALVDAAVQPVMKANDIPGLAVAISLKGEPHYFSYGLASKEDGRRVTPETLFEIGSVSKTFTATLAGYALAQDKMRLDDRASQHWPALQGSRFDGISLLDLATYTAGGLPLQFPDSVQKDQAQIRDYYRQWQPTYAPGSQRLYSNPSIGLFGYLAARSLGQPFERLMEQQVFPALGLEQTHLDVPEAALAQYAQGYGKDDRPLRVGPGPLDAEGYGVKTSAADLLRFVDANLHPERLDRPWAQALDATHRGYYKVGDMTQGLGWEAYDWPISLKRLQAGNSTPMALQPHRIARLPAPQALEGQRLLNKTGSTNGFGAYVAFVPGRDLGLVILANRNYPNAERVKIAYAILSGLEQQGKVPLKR
Procedure: In order to determine the impact of the PDC-88 variant on hydrolysis, we determined hydrolysis progress curves for PDC-3, PDC-88, and a strongly hydrolyzing comparator (NDM-1 or PER-2) for cefepime (FEP, Fig. 3A), ceftazidime (CAZ, Fig. 3B), ceftolozane (TOL, Fig. 3C), and aztreonam (ATM, Fig. 3D).
β-Lactamase kinetic and inhibitor constants were determined using an Agilent 8453 UV-Visible Spectrophotometer to record progress curves and determine initial rates and other kinetic parameters as appropriate. Reactions were carried out in 1× phosphate-buffered saline (PBS) (pH 7.4) at room temperature in a 0.2 cm path-length quartz cuvette (Hellma Analytics). Reads were taken every 10 s to minimize UV-mediated background hydrolysis.
The extinction coefficients used were: nitrocefin, Δε482 = 17,400 M^−1 cm^−1, and cefepime, Δε260 = −10,000 M^−1 cm^−1.
The kinetic constants KM and Vmax were determined using a nonlinear least-squares regression of the data to the Henri-Michaelis-Menten equation (equation 1) in Origin Version 2020b (OriginLab, Northampton, MA), where v is the velocity of the reaction; Vmax is the theoretical maximum velocity; KM is the Michaelis constant; and [S] is the substrate concentration: […]

[1] = tested on: E. coli DH10B/pTU625 (PDC-88); assay: Broth microdilution MIC, isogenic E. coli expressing PDC-88; assay type: cell-based, Escherichia coli; conditions: for MIC: Escherichia coli
Procedure: (§1) Genetic constructs used for minimum inhibitory concentration (MIC) testing were designed by Venatorx Pharmaceuticals and codon-optimized for use in E. coli and synthesized by Twist Bioscience as described previously ([9]). […] DH10B cells expressing an empty pET24a(+) vector (Novagen) were also grown, and the plasmid purified. Both pCR4-TOPO-PDC-88 and empty pET24a(+) were cut with BamHI and NdeI, the digests run on low-melting point agarose gels, and the bands of interest excised and ligated to yield a PDC-88 expressing pET24a(+) construct with the His tag removed. The PDC-3 expression construct was created in a similar manner but starting with a previously described pBC SK(−) vector ([42]). The final plasmids were grown in E. coli DH10B cells and purified.
(§2) Modal broth microdilution MICs (or median broth microdilution MICs where appropriate) were determined in accordance with Clinical and Laboratory Standards Institute (CLSI) M07 guidelines ([43]). Isogenic E. coli DH10B cells expressing the abovementioned plasmid-encoded PDC constructs were used. […] CLSI quality control strains Escherichia coli NCTC 13353, E. coli ATCC 35218, and Klebsiella pneumoniae ATCC 700603 were used during testing ([24]).

[2] = tested on: E. coli DH10B/pTU627 (PDC-90); assay: Broth microdilution MIC, isogenic E. coli expressing PDC-90; assay type: cell-based; conditions: Escherichia coli
Procedure: as §1, §2

[3] = tested on: E. coli DH10B/pTU628 (PDC-91); assay: Broth microdilution MIC, isogenic E. coli expressing PDC-91; assay type: cell-based; conditions: Escherichia coli
Procedure: as §1, §2

[4] = tested on: E. coli DH10B/pTU629 (PDC-92); assay: Broth microdilution MIC, isogenic E. coli expressing PDC-92; assay type: cell-based; conditions: Escherichia coli
Procedure: as §1, §2

[5] = FEP hydrolysis by PDC-3, 1× PBS pH 7.4, room temperature

## CO/N=C(\C(=O)N[C@@H]1C(=O)N2C(C(=O)[O-])=C(C[N+]3(C)CCCC3)CS[C@H]12)c1csc(N)n1 [FEP, cefepime]
P. aeruginosa isolates
  susceptibility of isolates: 1.5%
PDC-3; [5]
  Km: 205 ± 9 µM
  kcat: 0.25 ± 0.02 s⁻¹
PDC-3; PDC-3, over 900 s, versus UV-mediated background
  hydrolysis progress curve: slightly above background
[1]; read-out: MIC FEP AVI
  MIC: 0.25 µg/mL (≈ 0.52 µM)
[1]; read-out: MIC FEP TZB
  MIC: 16 µg/mL (≈ 33.3 µM)
[1]; E. coli DH10B/pTU625 (PDC-88), FEP with TAN at constant 4 µg/mL, read-out: MIC FEP TAN
  MIC: 0.25 µg/mL (≈ 0.52 µM)
[1]; E. coli DH10B/pTU625 (PDC-88), read-out: MIC FEP Alone
  MIC: 32 µg/mL (≈ 66.6 µM)
[1]; {}
  increase of cefepime MIC, PDC-88 compared to PDC-3: 16 fold
[2]; read-out: MIC FEP AVI
  MIC: 0.5 µg/mL (≈ 1.04 µM)
[2]; read-out: MIC FEP TZB
  MIC: 32 µg/mL (≈ 66.6 µM)
[2]; E. coli DH10B/pTU627 (PDC-90), FEP with TAN at constant 4 µg/mL, * median value reported, read-out: MIC FEP TAN
  MIC: 0.5 µg/mL (≈ 1.04 µM)
[2]; E. coli DH10B/pTU627 (PDC-90), read-out: MIC FEP Alone
  MIC: 64 µg/mL (≈ 133 µM)
[3]; read-out: MIC FEP AVI
  MIC: 0.5 µg/mL (≈ 1.04 µM)
[3]; read-out: MIC FEP TZB
  MIC: 32 µg/mL (≈ 66.6 µM)
[3]; E. coli DH10B/pTU628 (PDC-91), FEP with TAN at constant 4 µg/mL, read-out: MIC FEP TAN
  MIC: 0.5 µg/mL (≈ 1.04 µM)
[3]; E. coli DH10B/pTU628 (PDC-91), read-out: MIC FEP Alone
  MIC: 32 µg/mL (≈ 66.6 µM)
[4]; read-out: MIC FEP AVI
  MIC: 0.5 µg/mL (≈ 1.04 µM)
[4]; read-out: MIC FEP TZB
  MIC: 32 µg/mL (≈ 66.6 µM)
[4]; E. coli DH10B/pTU629 (PDC-92), FEP with TAN at constant 4 µg/mL, read-out: MIC FEP TAN
  MIC: 0.25 µg/mL (≈ 0.52 µM)
[4]; E. coli DH10B/pTU629 (PDC-92), read-out: MIC FEP Alone
  MIC: 64 µg/mL (≈ 133 µM)
